With `COc1cc2c(cc1OC)C(=O)C(c1ccc3c(c1)OCO3)CC2` (configuration not stated) the melting point was 168 to 170 °C.
Compound `CCCCc1nc2cccc(CC(=O)O)c2n1Cc1ccc(-c2ccccc2-c2nnn[nH]2)cc1` has a melting point of 170 to 171 °C.
In the case of `CC(C)C[C@@H](C(=O)O)n1sc2ccc(F)cc2c1=O`, the melting point is reported as 161 to 162 °C.
With `NC(=NO)c1ncn2c1nc(N1CCOCC1)c1ccccc12` the melting point was 212 to 213 °C.
`CC(=O)OCC1CC(=O)NN=C1c1ccc2c(c1)CCC(=O)N2C` (configuration not stated) gave a melting point of 149 to 153 °C.
In the case of `Cc1cccnc1-c1ccccc1Nc1nc(Nc2ccc3c(c2)C(C)(C)CCC(=O)N3)ncc1Cl`, the melting point is reported as 130 to 135 °C.
For `COc1cc(C(=O)c2sc(NC(=O)c3ccncc3)nc2-c2ccco2)ccn1`, the melting point was 237 to 239 °C.
Compound `CCOC(=O)C(O)CCc1ccc(OC)c(OCc2ccccc2)c1` (configuration not stated) has a melting point of 93 to 94 °C.
`COc1ccc2c(c1)C(=O)N(CCN(C)CCN1C(=O)c3ccccc3C(C)(C)C1=O)C(=O)C2(C)C` showed a melting point of 155 to 156 °C.
Compound `O=C(NCc1ccccc1Cl)c1ccc(Br)cc1` has a melting point of 133 °C.
For `CSc1nnc(-c2ccc3ncn(-c4ccc(OC(F)F)cc4)c3c2)o1`, the melting point was 202 to 203 °C.
In the case of `N#CCc1c(Cl)ccc2cc(Cl)cnc12`, the melting point is reported as 152 °C.
In the case of `CCc1sc2ccccc2c1C(=O)O`, the melting point is reported as 136 °C.
Compound `COc1ccnnc1NS(=O)(=O)c1cccc(Cl)c1Cl` has a melting point of 210 to 211 °C.
In the case of `COC(=O)c1cccc2[nH]c(-c3ccc(Cl)cc3)c(C=O)c12`, the melting point is reported as 221 to 222 °C.
With `COC(=O)c1ccc(CO)cc1O` the melting point was 77 to 78 °C.
In the case of `O=C(O)CNC(=O)Cc1ccc(Cl)cc1S`, the melting point is reported as 148 to 149 °C.
For `CN1CCN(C(=O)c2ccc3c([N+](=O)[O-])c(O)c(O)cc3c2)CC1`, the melting point was greater than 360 °C.
With `O=C1CCn2ncnc2N1` the melting point was 276 to 280 °C.
For `CC1SC(=O)NN=C1c1ccc2c(c1)CC(C)(C)C(=O)N2` (configuration not stated), the melting point was 245 °C.
`Cc1ncn(-c2ccc(NC(=O)OCc3ccccc3)cc2F)n1` gave a melting point of 153 to 155 °C.
With `CCOc1ccc(C(Cl)=NOS(C)(=O)=O)cc1` the melting point was 93 to 95.5 °C.
Compound `c1ccc(C2CCNC3=NCCCN32)cc1` (configuration not stated) has a melting point of 177 to 179 °C.
With `COc1cc(Nc2nccc(-c3ccc(NCCO)nc3)n2)cc(OC)c1OC` the melting point was 123 °C.
`CC(=O)c1c(CBr)c(CBr)c(C(C)=O)c2c1C(=O)c1ccccc1C2=O` gave a melting point of 225 to 227 °C.
Work on `CCCCCCc1nc(N)n2nc(-c3ccco3)nc2n1` yielded a melting point of 131 to 133 °C.
For `CCC[C@H]1CC[C@H](c2ccc(-c3ccccc3)c(F)c2)CC1`, the melting point was 96.5 to 97.3 °C.
For `CC(=O)c1ccc(-c2ccc(Cl)cc2)c([N+](=O)[O-])c1`, the melting point was 103 to 105 °C.
For `NCC1Cc2cccc(-c3ccsc3)c2O1` (configuration not stated), the melting point was greater than 200 °C.
For `COc1ccccc1Nc1ccc2c(c1)OCc1cc([N+](=O)[O-])ccc1C2=O`, the melting point was 200 °C.
`Cc1cc(C#N)c(C)c(C(=O)Nc2ccc(C#N)cn2)n1` showed a melting point of 216 °C.
`O=C(Nc1cccnc1)c1ccc(OC(F)F)c2oc3ccccc3c12` showed a melting point of 209 to 211 °C.
`O=C1CCN(Cc2ccccn2)CC1C(c1ccccc1)c1ccccc1` (configuration not stated) gave a melting point of 100 °C.
For `CS(=O)(=O)Nc1cccc([N+](=O)[O-])c1`, the melting point was 237 °C.
For `O=C(NCCN1CCC(O)(c2ccc(Cl)cc2)CC1)c1ccccc1`, the melting point was 169 °C.
In the case of `Cc1ccc(N2CCCCC2)c(NC(=O)c2ccncc2)c1`, the melting point is reported as 142 to 144 °C.
`CC(C)(C)OC(=O)COCCCCCCn1nc(-c2ccccc2)c(-c2ccccc2)c1-c1ccccc1` gave a melting point of 69 to 72 °C.
In the case of `COc1c2occc2cc2cc(C(=O)O)c(=O)oc12`, the melting point is reported as 227 to 228 °C.
`CCc1c(OC)nc(OC)nc1C(=O)c1cc(Cl)cc(Cl)c1` showed a melting point of 118 to 119 °C.
Compound `NC(=O)c1cn(Cc2ccccc2)c(CO)n1` has a melting point of 204 to 207 °C.
Compound `O=C1c2ccccc2C(=O)N1C(O)C1OC(n2ccc(=O)[nH]c2=O)CC1O` (configuration not stated) has a melting point of 241 to 242 °C.
With `C#CCCn1ncc2c(N)c(C(=O)OCC)c(C)nc21` the melting point was 101 to 103 °C.
For `CN1C(=O)C(C)(C)CCc2cc(C(=O)O)ccc21`, the melting point was 240 to 241 °C.
Work on `O=C(CC1CC1)N[C@H]1CC[C@H](CCN2CCN(c3nccc4c3CCO4)CC2)CC1` yielded a melting point of 193 °C.
With `CC1(C)CC(OC(=O)CCC(=O)OC2CC(C)(C)NC(C)(C)C2)CC(C)(C)N1` the melting point was 118 °C.
For `CC(NC(=O)C=Cc1ccc(C(C)(C)C)cc1)c1ccc(NS(C)(=O)=O)c(F)c1` (configuration not stated), the melting point was 154 to 156 °C.
With `CCOc1cccc(-c2ccc(C3=CCN(S(=O)(=O)CC(=O)OC)CC3)cc2)c1` the melting point was 120 to 122 °C.
Work on `CSc1ncc(C(=N)NO)cc1Cl` yielded a melting point of 139 to 143 °C.
For `CCN(CC)C(=O)c1cc(-n2c(=O)cc(C(F)(F)F)[nH]c2=O)c(F)cc1Cl`, the melting point was 253 to 254 °C.
`COc1ccc(C(F)(F)F)cc1C(=O)c1ccc(C#N)cc1` gave a melting point of 88 °C.
Work on `N#Cc1ccc(N2CCC(c3ccccc3)CC2)cc1` yielded a melting point of 167 to 169 °C.
`COc1cc2c(cc1OC)C(C(S)(C#N)CCC(=O)OCCC(C)C)=NCC2` (configuration not stated) showed a melting point of 120 °C.
In the case of `NC(=O)c1nn(-c2ccc3c(c2)OCO3)c2c1CCc1ccc(NC(=O)c3cc(Cl)ncc3Cl)cc1-2`, the melting point is reported as 292 to 293 °C.
In the case of `Cc1[nH]c(=O)c(C#N)cc1C(=O)CBr`, the melting point is reported as 212 to 214 °C.
`O=C(O)COCCc1cc2cc(Cl)ccc2n1S(=O)(=O)c1ccccc1` showed a melting point of 135 to 137 °C.
Work on `CC1COCc2nc3cnc4cc(Br)ccc4c3n21` (configuration not stated) yielded a melting point of 207 to 209 °C.
In the case of `CC(=O)C1CCC2C3CCC4CC(O)C(C)CC4(C)C3C(=O)CC12C` (configuration not stated), the melting point is reported as 142 to 146 °C.
`O=C(O)CCc1cn(Cc2ccc3cc(OCc4ccccc4F)ccc3c2)cc1-c1ccccc1` gave a melting point of 143 to 144 °C.
With `CCCCc1nc2cccc(C(=O)OC)c2n1Cc1ccc(-c2ccccc2-c2nc(=S)o[nH]2)cc1` the melting point was 180 to 181 °C.
`COc1ccccc1C1=C(NC(=O)Nc2ccc(N(C)C)cc2)SCc2ccccc21` gave a melting point of 128 to 130 °C.
`N#Cc1cc(C(=O)c2ccc(C(F)(F)F)cc2)cc(O)c1O` gave a melting point of 204 to 206 °C.
`O=C(NCc1cccnc1)c1ccc2n1Cc1ccccc1N(C(=O)CSc1ccc(Br)cc1)C2` showed a melting point of 136 to 137 °C.
With `CCOc1nc(C(F)(F)F)cc(=O)n1-c1cc(O)c(Br)cc1F` the melting point was 160 to 161 °C.
`CSc1ccc(CC(=O)NC(NC(Cc2ccccc2C)=NC#N)C(C)(C)C)cc1` (configuration not stated) showed a melting point of 201 to 202 °C.
Compound `CC(=O)N1CCC2(CC1)Cc1ccccc1O2` has a melting point of 94 to 97 °C.
`CN=C(SCc1ccc(OC)cc1)C1(c2cccnc2)CCCCC1CCO` (configuration not stated) gave a melting point of 145 to 146 °C.
`COc1ccc(-c2[nH]nc3c2C(=O)c2c(NC(=O)NNC(=O)c4ccccc4N)cccc2-3)cc1` showed a melting point of 257 °C.
Compound `NC1=CC(N)=NCN1C(=O)OCc1ccccc1` has a melting point of 194 °C.
`COc1cc2c(cc1OC)CN(C)C2` gave a melting point of 80 °C.
`Cn1c(C(F)(F)F)c([N+](=O)[O-])c2ccc(Cl)cc21` showed a melting point of 157 to 160 °C.
For `COc1ccc(Cn2c(=O)c3ccccc3n(CCCCBr)c2=O)cc1`, the melting point was 124 to 125 °C.
`O=C1NCCc2ccc(OCCCCN3CCN(c4cccc5c4OCCC5)CC3)nc2N1` gave a melting point of 154 to 156 °C.
For `COCCN1CCc2cc(Nc3ncc(Cl)c(Nc4cc(C(N)=O)ccc4OC)n3)c(OC)cc2CC1`, the melting point was 218 to 225 °C.
With `Cc1noc(C)c1C(=O)N1CCC2(CC1)CSC1=C(O2)c2ccccc2C(=O)C1=O` the melting point was 274 to 275 °C.
For `COc1cc2c(cc1Cl)C(=O)Cc1ccccc1S2`, the melting point was 171 to 173 °C.
Compound `NC(=O)CNC(=O)C1(N2CCCC2=O)CC1` has a melting point of 180 °C.
For `Cc1cc([N+](=O)[O-])c(CC2NC(=O)NC2=O)cc1Cl` (configuration not stated), the melting point was 211 to 214 °C.
`Cn1ccnc1Sc1ccc(Nc2c(C#N)cnc3cc(/C=C/CN4CCOCC4)ccc23)cc1Cl` showed a melting point of 235 to 240 °C.
`CN1CCN(Cc2ccc(COc3cccc4c3CN(C3CCC(=O)NC3=O)C4=O)cc2)CC1` (configuration not stated) showed a melting point of 188 to 190 °C.
In the case of `CCOC(=O)C(C(=O)N(C)C)=C(OCc1ccccc1)c1ccc(Cl)cc1Cl`, the melting point is reported as 115 °C.
`CC(C)C(N)CN1CCC(Nc2nc3ccccc3[nH]2)CC1` (configuration not stated) gave a melting point of 138 °C.
In the case of `N#Cc1nn(-c2c(Cl)cc(C(F)(F)F)cc2Cl)cc1C1CC(F)(F)C1`, the melting point is reported as 128 to 129 °C.
`C[C@@H]1CN(C(=O)c2cc3c(C(=O)OC(C)(C)C)ncn3c3ccccc23)C[C@H](C)N1` showed a melting point of 233 to 234 °C.
With `CN1C(=O)CN(c2ccccc2)C1=S` the melting point was 112 °C.
Compound `CC1(C)CC(C)(C)c2cc(NC(=O)c3ccc(O)cc3)ccc21` has a melting point of 185 to 187 °C.
With `Cn1nc2nc(-c3ccc(N)c(C#N)c3)cc(C(F)(F)F)c2c1-c1ccccc1` the melting point was 295 °C.
`CC(C)N(C(N)=S)c1ccc2c(c1)OCO2` gave a melting point of 149 to 151 °C.
`CCCCCCS(=O)c1c(O)cc(C)oc1=O` (configuration not stated) showed a melting point of 59 to 60 °C.
Compound `COCOc1ccccc1COc1cc2c(cc1-c1cc(C=CC(=O)O)ccc1OC)C(C)(C)CCC2(C)C` has a melting point of 159 to 161 °C.
For `COc1ccnc(-c2cccs2)c1`, the melting point was 43 to 45 °C.
With `CC(C)N(C(=O)CNc1ccccc1N)c1ccccc1` the melting point was 110 to 112 °C.
In the case of `COc1ccc2c(c1)C(=O)CC21CCCC1`, the melting point is reported as 80 °C.
With `Nc1c(Cl)cc(C(=O)O)c2c1CCCO2` the melting point was 226 °C.
In the case of `O=C1OC(P(=O)(O)c2ccccc2)c2ccccc21` (configuration not stated), the melting point is reported as 230 to 233 °C.
`CN(C)c1ccc2c(=O)[nH]c(=O)n(CCCCN3CCC(OC(c4ccccc4)c4ccccc4)CC3)c2c1` gave a melting point of 203 to 204 °C.
For `N#CC1CC2(c3ccccc3)SC13c1ccccc1CCN3C2=O` (configuration not stated), the melting point was 225 to 226 °C.
Compound `Cc1cc(-c2ncn3c(C(F)(F)F)cc(-c4cccc(C(F)(F)F)c4)nc23)ccn1` has a melting point of 234 °C.
In the case of `CC1(C)C(=NOCc2ccccc2)C(c2ccc(S(C)(=O)=O)cc2)=C1c1ccccc1`, the melting point is reported as 56 to 61 °C.
Compound `COC(=O)Cc1ccc(OCC2CN(c3ccc(C(=N)N)cc3)C(=O)O2)cc1` (configuration not stated) has a melting point of 151 to 152 °C.
`c1ccc(-c2nn3c(c2-c2ccnc4cc(OCCN5CCOCC5)ccc24)CCCCC3)nc1` showed a melting point of 157 to 159 °C.
Compound `COC(=O)Cc1ccc(OCCNC(=O)C2Cc3ccccc3N2S(=O)(=O)c2ccc(-c3cc(C(F)(F)F)ccc3Cl)cc2)c(OC)c1` (configuration not stated) has a melting point of 51 to 58 °C.
For `CCOCc1nc2c(N)nc(C)c(C)c2n1CC1(O)CCC1`, the melting point was 190 to 191 °C.

Source: a melting point compilation (Tetko et al.; mined from patent text by program, amines drawn as free bases though some values may be those of a salt)
